The source of these data is ChEMBL document CHEMBL1201862, “PubChem BioAssay data set” (2004).

Where a name gives a salt, the structure may show the parent alone.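 Where inhibition never reached the appropriate level, the endpoint shown equals the highest concentration tested. Otherwise, values were interpolated linearly from a five-concentration, 48-hour dose response in 96-well plates. GI50 is the concentration that inhibits growth by half.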 Active and inactive are the calls of the source. Rule as the data show it: active = GI50 up to about 1.1 µM and inactive = higher. Some results are limits rather than exact numbers.

Some test systems named below: TK-10; KM12; HCT-116; PC-3; MDA-MB-231; SK-MEL-5; MDA-N; HOP-92; CAKI-1; T47D; A498; NCI-H522; MDA-MB-435; LOX IMVI; MCF7; NCI/ADR-RES; SNB-75; SF-539.
What all share (assay): growth of human tumour cells (NCI), 48 h

In the case of `C1=C2C3=[N+](CCCCC3)CC2Cc2ccsc21` (stereo not given), the GI50 in the experiment on TK-10 is 59.8 µM (inactive); in the experiment with KM12 it was 30.4 µM (inactive); in the experiment on HCT-116, > 100 µM (inactive); in the experiment with PC-3 it was 39.5 µM (inactive); with MDA-MB-231, > 100 µM (inactive); in the experiment with SK-MEL-5, 53 µM (inactive). The GI50 with MDA-N was > 100 µM (inactive); in the experiment with HOP-92, 76.7 µM (inactive); with CAKI-1, > 100 µM (inactive); with T47D, 63.5 µM (inactive); in the experiment with A498, 39.8 µM (inactive); with NCI-H522, 39.7 µM (inactive). Further, the GI50 was 60.3 µM (inactive) in the experiment with MDA-MB-435; 84.7 µM (inactive) in the experiment with LOX IMVI; 50.1 µM (inactive) in the experiment with MCF7; > 100 µM (inactive) with NCI/ADR-RES; 29.9 µM (inactive) in the experiment with SNB-75.

On to `CNCCC=C1c2ccccc2CCc2ccccc21` [NORTRIPTYLINE HYDROCHLORIDE], for which the GI50 in the experiment with TK-10 was 14.8 µM (inactive); in the experiment on KM12, 12.2 µM (inactive); in the experiment with HCT-116, 14.6 µM (inactive); in the experiment on PC-3, 14.3 µM (inactive); with MDA-MB-231, > 37 µM (inactive); in the experiment on SK-MEL-5, 11.6 µM (inactive). The GI50 in the experiment on MDA-N is 15.6 µM (inactive); with HOP-92, 13.7 µM (inactive); in the experiment on CAKI-1, 13.8 µM (inactive); with T47D, 9.23 µM (inactive); with A498, 15.4 µM (inactive); in the experiment on NCI-H522, 14.6 µM (inactive). Also, the GI50 is 13.5 µM (inactive) with MDA-MB-435; 13.2 µM (inactive) in the experiment with LOX IMVI; 15.7 µM (inactive) with MCF7; 15.7 µM (inactive) in the experiment with NCI/ADR-RES; 6.47 µM (inactive) in the experiment with SNB-75; 28.5 µM (inactive) in the experiment on SF-539.

As to `CCCc1c(-c2ccccc2)[nH]c2ccccc2c1=O`, the GI50 with TK-10 is 32.6 µM (inactive); in the experiment with KM12, 27.7 µM (inactive); with HCT-116 it was 24.3 µM (inactive); in the experiment on PC-3, > 100 µM (inactive); in the experiment with MDA-MB-231, 32.2 µM (inactive); in the experiment on MDA-N it was 41.4 µM (inactive). For the same molecule, the GI50 in the experiment with HOP-92 was > 100 µM (inactive); in the experiment on T47D it was 25.9 µM (inactive); in the experiment with A498, 29 µM (inactive); with MDA-MB-435, 37.3 µM (inactive); in the experiment on LOX IMVI it was 23.9 µM (inactive); in the experiment with MCF7, 36.7 µM (inactive). Moreover, in the experiment on SF-539, the GI50 was 33.8 µM (inactive).

As for `C[C@]12CC[C@H]3[C@@H](CC=C4C[C@@H](O)CC[C@@]43C)[C@@H]1C/C(=C\c1ccc([N+](=O)[O-])cc1)[C@@H]2O`, the GI50 with TK-10 was 19.4 µM (inactive); in the experiment with KM12 it was 18.5 µM (inactive); with HCT-116, 3.92 µM (inactive); with PC-3, 14.3 µM (inactive); with MDA-MB-231, 7.93 µM (inactive); in the experiment with SK-MEL-5, 6.81 µM (inactive). Moreover, the GI50 with HOP-92 is 21.1 µM (inactive); in the experiment with CAKI-1, 13.8 µM (inactive); in the experiment with T47D it was 4.38 µM (inactive); in the experiment on A498 it was 15.1 µM (inactive); in the experiment with NCI-H522, 9.98 µM (inactive); in the experiment on MDA-MB-435, 22.5 µM (inactive). The GI50 in the experiment with LOX IMVI was 18.8 µM (inactive); in the experiment with MCF7 it was 6.71 µM (inactive); with NCI/ADR-RES it was 12.5 µM (inactive); with SNB-75, 17.4 µM (inactive); in the experiment on SF-539, 17.1 µM (inactive).

In the case of `CC(C)(CCCCC(C)(C)C1NC(=O)N1)C1NC(=O)N1`, the GI50 with TK-10, in the experiment with KM12, in the experiment with HCT-116, with PC-3, in the experiment with MDA-MB-231 and in the experiment on SK-MEL-5 was > 10 µM (inactive) each time. In addition, the GI50 with MDA-N, with CAKI-1, in the experiment with T47D, in the experiment on A498, in the experiment on NCI-H522 and in the experiment on MDA-MB-435 was > 10 µM (inactive) throughout. Besides, the GI50 in the experiment with LOX IMVI, in the experiment on MCF7, in the experiment with NCI/ADR-RES, with SNB-75 and in the experiment on SF-539 was > 10 µM (inactive) each time.

With `COc1cc2c(cc1OC)C1Cc3cc(OC)c(OC)cc3C(C2)O1`, the GI50 with TK-10 is > 100 µM (inactive); with KM12, > 100 µM (inactive); in the experiment on HCT-116, > 100 µM (inactive); in the experiment with PC-3, > 100 µM (inactive); in the experiment with MDA-MB-231, 29.1 µM (inactive); in the experiment with MDA-N it was > 100 µM (inactive). The GI50 is > 100 µM (inactive) in the experiment on HOP-92; 44.9 µM (inactive) in the experiment on CAKI-1; 58.5 µM (inactive) in the experiment with T47D; > 100 µM (inactive) with MDA-MB-435; > 100 µM (inactive) with LOX IMVI; > 100 µM (inactive) in the experiment with MCF7. Besides, the GI50 in the experiment with NCI/ADR-RES, with SNB-75 and in the experiment with SF-539 was > 100 µM (inactive) throughout.

For `Cc1cc(C)c(NC(=O)/C=C/c2ccccc2)c(C)c1`, the GI50 is > 100 µM (inactive) with TK-10; > 100 µM (inactive) with KM12; > 100 µM (inactive) with PC-3; 56.6 µM (inactive) in the experiment on HOP-92; 6 µM (inactive) in the experiment on NCI-H522; > 100 µM (inactive) with MDA-MB-435. The GI50 with MCF7 is > 100 µM (inactive); in the experiment on NCI/ADR-RES, 29.3 µM (inactive); with SNB-75 it was 3.93 µM (inactive); in the experiment with SF-539, 59 µM (inactive).

For `COC(=O)CSc1nc2[nH]c(SC)c(C(N)=O)c2c(=O)n1-c1ccccc1`, the GI50 in the experiment with TK-10, in the experiment with KM12, in the experiment on PC-3, in the experiment on MDA-MB-231, with SK-MEL-5 and with MDA-N was > 10 µM (inactive) in each case. The GI50 with HOP-92, in the experiment on CAKI-1, in the experiment on T47D, in the experiment on MDA-MB-435, in the experiment on LOX IMVI and in the experiment with MCF7 was > 10 µM (inactive) throughout. Also, the GI50 with SNB-75 was > 10 µM (inactive).

As to `CC[C@@H]1CN2CCC1C[C@@H]2C(O)c1ccnc2ccc(OCCN3CCN(CCOc4ccc5nccc(C(O)[C@@H]6C[C@@H]7CCN6C[C@@H]7CC)c5c4)CC3)cc12` (stereo not given in full), the GI50 in the experiment on TK-10 was 14.4 µM (inactive); with KM12 it was 16.1 µM (inactive); in the experiment on HCT-116, 14.2 µM (inactive); in the experiment on PC-3, 15.9 µM (inactive); in the experiment on MDA-MB-231, 15.9 µM (inactive); in the experiment on SK-MEL-5, 15 µM (inactive). The GI50 with MDA-N is 12.9 µM (inactive); in the experiment with HOP-92, 8.81 µM (inactive); in the experiment with CAKI-1, 17.9 µM (inactive); with T47D it was 19.7 µM (inactive); in the experiment on A498, 20.2 µM (inactive); in the experiment with NCI-H522, 12 µM (inactive). The GI50 in the experiment with MDA-MB-435 is 13.8 µM (inactive); in the experiment on LOX IMVI, 14.8 µM (inactive); in the experiment with MCF7 it was 15.5 µM (inactive); in the experiment on NCI/ADR-RES, > 100 µM (inactive); in the experiment on SF-539 it was 13.8 µM (inactive).

Take `O=C(O)CCCCn1ccc(=O)[nH]c1=O`: the GI50 in the experiment with TK-10, with KM12, with HCT-116, in the experiment with PC-3, in the experiment with MDA-MB-231 and with SK-MEL-5 was > 100 µM (inactive) in each case. The GI50 in the experiment with MDA-N, with CAKI-1, in the experiment on T47D, with A498, in the experiment on NCI-H522 and in the experiment with MDA-MB-435 was > 100 µM (inactive) in each case. For the same molecule, the GI50 in the experiment with LOX IMVI, in the experiment on MCF7, in the experiment with NCI/ADR-RES, with SNB-75 and in the experiment on SF-539 was > 100 µM (inactive) in each case.

For the molecule `O=C(N[C@H]1c2ccsc2/C(=N/O)[C@H]1O)C(F)(F)F`, the GI50 is > 100 µM (inactive) with TK-10; > 100 µM (inactive) with HCT-116; > 100 µM (inactive) with PC-3; > 10 µM (inactive) in the experiment with MDA-MB-231; > 100 µM (inactive) with SK-MEL-5; > 100 µM (inactive) in the experiment with MDA-N. Moreover, the GI50 in the experiment with HOP-92, in the experiment with CAKI-1, in the experiment on T47D, with A498, in the experiment with MDA-MB-435 and in the experiment with LOX IMVI was > 100 µM (inactive) each time. In addition, the GI50 with MCF7, with NCI/ADR-RES, in the experiment on SNB-75 and with SF-539 was > 100 µM (inactive) in each case.

Take `C=CC1(c2ccc3ccccc3c2)OCC(CC)O1` (stereo not given): the GI50 with TK-10 is > 100 µM (inactive); in the experiment on KM12, 44.1 µM (inactive); with HCT-116 it was 40.9 µM (inactive); in the experiment on PC-3, 28 µM (inactive); in the experiment on MDA-MB-231, 0.207 µM (active); in the experiment on SK-MEL-5 it was 47 µM (inactive). Besides, the GI50 in the experiment with MDA-N was 24.8 µM (inactive); in the experiment on HOP-92, 36.7 µM (inactive); in the experiment on T47D, 35 µM (inactive); with NCI-H522 it was 40.6 µM (inactive); with MDA-MB-435 it was 63.4 µM (inactive); in the experiment with LOX IMVI, 21.8 µM (inactive). Moreover, the GI50 in the experiment on MCF7 is 55 µM (inactive); with NCI/ADR-RES, > 100 µM (inactive); with SNB-75 it was 30 µM (inactive).

Regarding `COc1cc2c(cc1OC)[C@@H]1[C@H](C#N)C(=O)C(C)(C)N1CC2`, the GI50 in the experiment with TK-10 was > 100 µM (inactive); in the experiment on KM12 it was > 100 µM (inactive); in the experiment on HCT-116, > 100 µM (inactive); in the experiment with PC-3, > 100 µM (inactive); with MDA-MB-231 it was 28.6 µM (inactive); in the experiment with SK-MEL-5, > 100 µM (inactive). Moreover, the GI50 in the experiment with MDA-N, with HOP-92, with CAKI-1, with A498, in the experiment on NCI-H522 and in the experiment on MDA-MB-435 was > 100 µM (inactive) each time. Besides, the GI50 with LOX IMVI, with MCF7 and with NCI/ADR-RES was > 100 µM (inactive) in each case.
